Experimental findings from paper PMC2680940 (Biochemistry, 2009) are described below.

For test [1], the target named is T1, 4-chlorobenzoate:CoA ligase (CBL) (Alcaligenes sp. AL3007, UniProt Q8GN86, D402A).
T1 sequence (Q8GN86 1-504 D402A): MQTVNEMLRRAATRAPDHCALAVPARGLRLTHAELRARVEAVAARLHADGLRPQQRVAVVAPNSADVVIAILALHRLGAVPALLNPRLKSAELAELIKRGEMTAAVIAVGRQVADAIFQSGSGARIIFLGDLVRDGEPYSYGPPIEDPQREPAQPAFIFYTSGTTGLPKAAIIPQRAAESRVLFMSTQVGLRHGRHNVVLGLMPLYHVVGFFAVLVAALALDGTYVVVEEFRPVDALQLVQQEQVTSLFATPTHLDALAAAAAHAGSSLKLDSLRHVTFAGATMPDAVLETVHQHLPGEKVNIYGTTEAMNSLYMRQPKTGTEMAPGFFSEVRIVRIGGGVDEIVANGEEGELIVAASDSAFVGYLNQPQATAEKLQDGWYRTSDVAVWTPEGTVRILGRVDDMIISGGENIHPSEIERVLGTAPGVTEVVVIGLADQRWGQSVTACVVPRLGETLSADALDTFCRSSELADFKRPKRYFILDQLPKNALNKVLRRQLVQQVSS
Put plainly: continuous spectrophotometric assay at […] nm, initial velocity. Type of test: biochemical. The settings on record: 20 μM 4-CB, 10 mM CoA, 15 mM MgCl2, 50 mM K+HEPES pH 7.5, 25 °C.

Test [2] addresses T2, 4-chlorobenzoate:CoA ligase (CBL) (Alcaligenes sp. AL3007, UniProt Q8GN86, D402P).
T2 sequence (Q8GN86 1-504 D402P): T1 sequence (Q8GN86 1-504 D402A)
The test is described as above. The settings on record: 20 μM 4-CB, 10 mM CoA, 15 mM MgCl2, 50 mM K+HEPES pH 7.5, 25 °C. Type of test: biochemical.

Molecules are shown by their SMILES.

With `Nc1ncnc2c1ncn2[C@@H]1O[C@H](COP(=O)(O)OP(=O)(O)OP(=O)(O)O)[C@@H](O)[C@H]1O` [ATP, adenosine-5′-triphosphate], the Km (as a rule, the substrate concentration at which the rate is half of its maximum) is 28.1 ± 0.9 µM in test [1] and 13.1 ± 0.7 µM in test [2].
